The molecules below were run against Pseudomonas aeruginosa LpxC enzyme (Pseudomonas aeruginosa (strain ATCC 15692 / DSM 22644 / CIP 104116 / JCM 14847 / LMG 12228 / 1C / PRS 101 / PAO1), UniProt P47205) (assay: biochemical). Details: class symbols A/B/C by IC50; Table 3; read-out: Enzyme inhibitory activity (inhibitory activity on Pseudomonas aeruginosa LpxC enzyme).
Assay type: biochemical

Row | IC50 [nM] | SMILES
1 | < 10 | CNC(=O)[C@@](C)(C(=O)NO)N(C)C(=O)c1ccc(C#Cc2cc(C)on2)cc1 [Compound 576, (2S)-N-hydroxy-N′,2-dimethyl-2-[methyl({4-[(5-methyl-1,2-oxazol-3-yl)ethynyl]phenyl}carbonyl)amino]propanediamide]
2 | < 10 | CN(C(=O)c1ccc(C#Cc2ccc(CN3CCCOCC3)cc2)cc1)C(C)(C(=O)NO)C(=O)NCc1ccccn1 (stereo not shown) [Compound 521, N-hydroxy-2-methyl-2-{methyl[(4-{[4-(1,4-oxazepan-4-ylmethyl)phenyl]ethynyl}phenyl)carbonyl]amino}-N′-(pyridin-2-ylmethyl)propanediamide]
3 | < 10 | CNC(=O)C(C(=O)NO)N(C)C(=O)c1ccc(C#Cc2ccc(CN3CC4CC4C3)cc2)cc1 (stereo not shown) [Compound 515, 2-{[(4-{[4-(3-azabicyclo[3.1.0]hex-3-ylmethyl)phenyl]ethynyl}phenyl)carbonyl](methyl)amino}-N-hydroxy-N′-methylpropanediamide]

Same assay, conditions: inhibitory activity on Pseudomonas aeruginosa LpxC enzyme, class symbols A/B/C; read-out: Enzyme inhibitory activity

Row | IC50 [nM] | SMILES
4 | 10 to 100 | CNC(=O)C(C(=O)NO)N(C)C(=O)c1ccc(OC2C=CCCC2)cc1 (stereo not shown) [Compound 444, 2-[{[4-(cyclohex-2-en-1-yloxy)phenyl]carbonyl}(methyl)amino]-N-hydroxy-N′-methylpropanediamide]
5 | < 10 | O=C(NC(C(=O)NO)C(=O)NCC1CCC1)c1ccc(-c2ccc(OCCO)cc2)cc1 (stereo not shown) [Compound 128, N-(cyclobutylmethyl)-N′-hydroxy-2-({[4′-(2-hydroxyethoxy)biphenyl-4-yl]carbonyl}amino)propanediamide]
6 | < 10 | CNC(=O)C(C(=O)NO)N(C)C(=O)c1ccc(-c2ccc(C3OCCO3)cc2)cc1 (stereo not shown) [Compound 187, 2-[{[4′-(1,3-dioxolan-2-yl)biphenyl-4-yl]carbonyl}(methyl)amino]-N-hydroxy-N′-methylpropanediamide]
7 | < 10 | CCCNc1ccc(-c2ccc(C(=O)N(C)C(C(=O)NC)C(=O)NO)cc2)cc1 (stereo not shown) [Compound 245, N-hydroxy-N′-methyl-2-(methyl {[4′-(propylamino)biphenyl-4-yl]carbonyl}amino)propanediamide]
8 | < 10 | CCNc1ccc(-c2ccc(C(=O)N(C)C(C(=O)NC)C(=O)NO)cc2)cc1 (stereo not shown) [Compound 32, 2-[{[4′-(ethylamino)biphenyl-4-yl]carbonyl}(methyl)amino]-N-hydroxy-N′-methylpropanediamide]
9 | 10 to 100 | CNC(=O)C(C(=O)NO)N(C)C(=O)c1ccc(-c2ccc(N(C)C)c(F)c2)cc1 (stereo not shown) [Compound 54, 2-[{[4′-(dimethylamino)-3′-fluorobiphenyl-4-yl]carbonyl}(methyl)amino]-N-hydroxy-N′-methylpropanediamide]
10 | < 10 | CNC(=O)C(C(=O)NO)N(C)C(=O)c1ccc(C#Cc2ccc(CN(CCO)CCO)cc2)cc1 (stereo not shown) [Compound 315, 2-[({4-[(4-{[bis(2-hydroxyethyl)amino]methyl}phenyl)ethynyl]phenyl}carbonyl)(methyl)amino]-N-hydroxy-N′-methylpropanediamide]
11 | > 100 | CNC(=O)C(C(=O)NO)N(C)C(=O)c1ccc(-c2ccccc2)nc1 (stereo not shown) [Compound 190, N-hydroxy-N′-methyl-2-{methyl[(6-phenylpyridin-3-yl)carbonyl]amino}propanediamide]
12 | < 10 | CNC(=O)C(C(=O)NO)N(C)C(=O)c1ccc(C#Cc2ccc(CNCC(C)(C)C)cc2)cc1 (stereo not shown) [Compound 329, 2-[({4-[(4-{[(2,2-dimethylpropyl)amino]methyl}phenyl)ethynyl]phenyl}carbonyl)(methyl)amino]-N-hydroxy-N′-methylpropanediamide]
13 | 10 to 100 | CN(C(=O)c1ccc(-c2ccccc2)cc1)C(C(N)=O)C(=O)NO (stereo not shown) [Compound 186, 2-[(biphenyl-4-ylcarbonyl)(methyl)amino]-N-hydroxypropanediamide]
14 | < 10 | CNC(=O)C(C(=O)NO)N(C)C(=O)c1ccc(-c2ccc3occc3c2)cc1 (stereo not shown) [Compound 184, 2-{[4-(1-benzofuran-5-yl)benzoyl](methyl)amino}-N-hydroxy-N′-methylpropanediamide]
15 | 10 to 100 | CNC(=O)C(C(=O)NO)N(C)C(=O)c1ccc(-c2cccc(O)c2)cc1 (stereo not shown) [Compound 48, N-hydroxy-2-{[(3′-hydroxybiphenyl-4-yl)carbonyl](methyl)amino}-N′-methylpropanediamide]
16 | < 10 | CNC(=O)C(C(=O)NO)N(C)C(=O)c1ccc(C#Cc2coc(CNCC(F)(F)F)c2)cc1 (stereo not shown) [Compound 488, N-hydroxy-N′-methyl-2-[methyl({4-[(5-{[(2,2,2-trifluoroethyl)amino]methyl}furan-3-yl)ethynyl]phenyl}carbonyl)amino]propanediamide]
17 | < 10 | O=C(NC(C(=O)NO)C(=O)NCCCc1ccccc1)c1ccc(-c2ccc(OCCO)cc2)cc1 (stereo not shown) [Compound 126, N-hydroxy-2-({[4′-(2-hydroxyethoxy)biphenyl-4-yl]carbonyl}amino)-N′-(3-phenylpropyl)propanediamide]
18 | < 10 | CNC(=O)C(NC(=O)c1ccc(-c2ccc(OCCCN3CCCOCC3)cc2)cc1)C(=O)NO (stereo not shown) [Compound 112, N-hydroxy-N′-methyl-2-[({4′-[3-(1,4-oxazepan-4-yl)propoxy]biphenyl-4-yl}carbonyl)amino]propanediamide]
19 | < 10 | Cc1cccc(CNC(=O)C(NC(=O)c2ccc(-c3ccc(OCCO)cc3)cc2)C(=O)NO)n1 (stereo not shown) [Compound 150, N-hydroxy-2-({[4′-(2-hydroxyethoxy)biphenyl-4-yl]carbonyl}amino)-N′-[(6-methylpyridin-2-yl)methyl]propanediamide]

Row | IC50 [nM] | SMILES
20 | < 10 | CNC(=O)C(C(=O)NO)N(C)C(=O)c1ccc(C#Cc2coc(CN3CCOCC3)c2)cc1 (stereo not shown) [Compound 483, N-hydroxy-N′-methyl-2-{methyl[(4-{[5-(morpholin-4-ylmethyl)furan-3-yl]ethynyl}phenyl)carbonyl]amino}propanediamide]
21 | > 100 | CN(C)CCNC(=O)C(NC(=O)c1ccc(-c2ccc(OCCO)cc2)cc1)C(=O)NO (stereo not shown) [Compound 123, N-[2-(dimethylamino)ethyl]-N′-hydroxy-2-({[4′-(2-hydroxyethoxy)biphenyl-4-yl]carbonyl}amino)propanediamide]
22 | < 10 | CNC(=O)C(C(=O)NO)N(C)C(=O)c1ccc(C#Cc2ccc(CCN3CCOCC3)cc2)cc1 (stereo not shown) [Compound 206, N-hydroxy-N′-methyl-2-{methyl[4-({4-[2-(morpholin-4-yl)ethyl]phenyl}ethynyl)benzoyl]amino}propanediamide]
23 | < 10 | O=C(NC(C(=O)NO)C(=O)NCc1ccco1)c1ccc(-c2ccc(OCCO)cc2)cc1 (stereo not shown) [Compound 12, N-(furan-2-ylmethyl)-N′-hydroxy-2-({[4′-(2-hydroxyethoxy)biphenyl-4-yl]carbonyl}amino)propanediamide]
24 | 10 to 100 | CNC(=O)C(C(=O)NO)N(C)C(=O)c1ccc(-c2ccc(CNC(C)=O)cc2)cc1 (stereo not shown) [Compound 241, 2-[({4′-[(acetylamino)methyl]biphenyl-4-yl}carbonyl)(methyl)amino]-N-hydroxy-N′-methylpropanediamide]
25 | < 10 | CNC(=O)C(C(=O)NO)N(C)C(=O)c1ccc(C#Cc2ccc(NCCO)cc2)cc1 (stereo not shown) [Compound 183, N-hydroxy-2-{[4-({4-[(2-hydroxyethyl)amino]phenyl}ethynyl)benzoyl](methyl)amino}-N′-methylpropanediamide]
26 | 10 to 100 | CNC(=O)C(C(=O)NO)N(C)C(=O)c1ccc(-c2ccc3nn(C)cc3c2)cc1 (stereo not shown) [Compound 197, N-hydroxy-N′-methyl-2-{methyl[4-(2-methyl-2H-indazol-5-yl)benzoyl]amino}propanediamide]
27 | 10 to 100 | COCCNC(=O)C(NC(=O)c1ccc(-c2ccc(OCCO)cc2)cc1)C(=O)NO (stereo not shown) [Compound 131, N-hydroxy-2-({[4′-(2-hydroxyethoxy)biphenyl-4-yl]carbonyl}amino)-N′-(2-methoxyethyl)propanediamide]
28 | < 10 | CNC(=O)C(C(=O)NO)N(C)C(=O)c1ccc(-c2ccc(OCCCN(C)Cc3ccccc3)cc2)cc1 (stereo not shown) [Compound 70, 2-{[(4′-{3-[benzyl(methyl)amino]propoxy}biphenyl-4-yl)carbonyl](methyl)amino}-N-hydroxy-N′-methylpropanediamide]
29 | < 10 | CNC(=O)C(C(=O)NO)N(C)C(=O)c1ccc(-c2ccc(OCCCN(C)Cc3c(F)cccc3F)cc2)cc1 (stereo not shown) [Compound 92, 2-{[(4′-{3-[(2,6-difluorobenzyl)(methyl)amino]propoxy}biphenyl-4-yl)carbonyl](methyl)amino}-N-hydroxy-N′-methylpropanediamide]
30 | 10 to 100 | CNC(=O)C(C(=O)NO)N(C)C(=O)c1ccc(-c2cccs2)cc1 (stereo not shown) [Compound 308, N-hydroxy-N′-methyl-2-(methyl {[4-(thiophen-2-yl)phenyl]carbonyl}amino)propanediamide]
31 | < 10 | CCOCc1ccc(-c2ccc(C(=O)N(C)C(C(=O)NC)C(=O)NO)cc2)cc1 (stereo not shown) [Compound 285, 2-[{[4′-(ethoxymethyl)biphenyl-4-yl]carbonyl}(methyl)amino]-N-hydroxy-N′-methylpropanediamide]
32 | < 10 | CNC(=O)C(C(=O)NO)N(C)C(=O)c1ccc(CCc2ccc(CCN3CCOCC3)cc2)cc1 (stereo not shown) [Compound 209, N-hydroxy-N′-methyl-2-{methyl[4-(2-{4-[2-(morpholin-4-yl)ethyl]phenyl}ethyl)benzoyl]amino}propanediamide]
33 | < 10 | CNC(=O)C(C(=O)NO)N(C)C(=O)c1ccc(-c2ccc(SCCCN3CCOCC3)cc2)cc1 (stereo not shown) [Compound 286, N-hydroxy-N′-methyl-2-{methyl[(4′-{[3-(morpholin-4-yl)propyl]sulfanyl}biphenyl-4-yl)carbonyl]amino}propanediamide]
34 | 10 to 100 | CC(=O)N(C)CCNC(=O)C(NC(=O)c1ccc(-c2ccc(OCCO)cc2)cc1)C(=O)NO (stereo not shown) [Compound 145, N-{2-[acetyl(methyl)amino]ethyl}-N′-hydroxy-2-({[4′-(2-hydroxyethoxy)biphenyl-4-yl]carbonyl}amino)propanediamide]
